Test results as given in patent US20030186943A1, “Substituted gamma-phenyl-delta-lactams and uses related thereto” (Inflazyme Pharmaceuticals Ltd., priority 1998, published 2003).
Where two headings read alike, the source gives them in different places.

Experiments:
[1] = target: T1, cAMP phosphodiesterase 3 from human platelets (Homo sapiens, UniProt Q14432); assay: Inhibition of cAMP phosphodiesterase 3 from human platelets; format: biochemical; details: for inhibition at 100 µM: PDE3
T1 construct: from tissue; host or cells: human platelets, cytoplasmic extract
Method in brief: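 Partially purified human platelet extract used as PDE3 source with cAMP as substrate, so cGMP-preferring PDE2 and PDE5 present in platelets go undetected. IBMX served as positive control.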

[2] = test system: cAMP response element luciferase activity in human U937 monocytic cells; assay: Potentiation of forskolin-induced CRE-luciferase activity in U937 cells; format: cell-based; details: U-937, U937 cells co-incubated with 10 μM forskolin, 4 hours, X marks this range
Method in brief: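 U937 cells electroporated with PCRE-luc reporter, recovered 16-18 h, then exposed to compound or vehicle with or without 10 μM forskolin for 4 h at 37 °C. Cell lysates read for luciferase luminescence.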

[3] = test system: IL-10 production in concanavalin A stimulated primary human CD4+ T-cells; assay: IL-10 production (Th2 profile) in concanavalin A stimulated primary human CD4+ T-cells; format: cell-based; details: T-cell, 10 μg/mL Concanavalin A, 48 hours, X marks this range
Source text: (§1) The assay on the primary human T-cells involves their activation by concanavalin A (conA); (Sigma, Catalogue No. C 5275), followed by ELISA detection for cytokines for either profile. In the case of Th1-profiles, IL-2 and INF-γ are used as benchmarks while IL-10 is the indicator for a Th2-profile. Biologically, these indicators are useful in that IL-2 is the major T-cell mitogen while IL-10 represents a powerful yet selective immunosuppressive agent.
(§2) Approximately 60 cc of whole human blood was collected into ACD anti-coagulant vacutainer tubes. 15 mL Ficoll Paque 1077 was aliquoted into 6 sterile 50 mL conical tubes. 10 mL of blood was slowly layered on top of the Ficoll Paque by holding the tube upright and resting the pipette tip at the inside edge of the tube and allowing the blood to slowly run down the side of the tube. Tubes were spun at 1700 rpm for 30 minutes at room temperature. The plasma layer above the leukocyte band was aspirated off and a pasteur pipette was used to lift off the leukocyte band and transfer it to a sterile 50 mL conical tube. Cells from each leukocyte gradiant tube were transferred to a separate 50 mL conical tube. Sterile PBS pH 7.4 was added to each 50 mL conical tube containing cells from leukocyte band to a volume of 50 mL. Tubes were spun at 1100 rpm for 10 minutes. Supernatant was aspirated off and the cells were resuspended in 50 mL PBS pH 7.4. Tubes were re-centrifuged at 1100 rpm for 10 minutes. Supernatant was aspirated off and the cells were resuspended in appropriate medium at a density of 5×10^7 cells/mL or 2×10^6 cells/mL.
(§3) CD 4+T-cell Preparation: Cells from Leukocyte preparation were resuspended in sterile PBS pH 7.4 supplemented with 2-6% Fetal Bovine Serum (FBS) at a density of 5×10^7 cells/mL. Cells were then ready for isolation.
(§4) 100 μL of antibody cocktail (Stem Cell Technologies, Catalogue No. 14062) was added for each mL of cells and mixed well. Cells+Ab cocktail was incubated on ice for 30 minutes. After 30 minute incubation, 60 μL of magnetic colloid was added for each mL of cells, and mixed well. Cells+Ab cocktail+magnetic colloid were incubated on ice for 30 minutes. After a final 30 minute incubation cells were ready for magnetic cell separation.
(§5) Sample was loaded into the top of a column. The stopcock was turned to allow the flow of media down through the column, and the media was collected into a collection tube. PBS supplemented with 2-6% FBS was added to the column until three column volumes had been collected (not including the volume of the start sample). Cells were washed, counted, and resuspended in RPMI 1640 with 10% FBS+2 mM L-glutamine at a density of 1×10^6 cells/mL.
(§6) CD4+ T-cells were isolated as described above. Cells were suspended in RPMI 1640 media (Stem Cell Technologies Inc.; Catalogue No. 36750) with 10% FBS+2 mM L-glutamine at a density of 1×10^6 cells/mL. Cells were maintained on ice as test compounds were prepared. Test compounds were prepared in a sterile 96-well assay plate at 50×the final desired test concentration, all wells contained an equal amount of dimethylsulfoxide vehicle. 500 μL of CD4^+ T-cells were added to each well of 24-well assay plate. 10 μL of each test compound working solution was added to the appropriate wells; two wells were left as stimulated and non-stimulated controls. 10 μL of concanavalin A (50×the final concentration) at 10 μg/mL was added to each well with the exception of the non-stimulated control wells. Cells were incubated at 37° C. for 48 hours. Conditioned media is then assessed by ELISA for the quantity of IL-2, […], TNFα and IL-10 present.
(§7) Tables 5A, 5B and 5C represent a synopsis of data across individuals with respects to the potency of compounds of the invention in their ability to inhibit cytokines that are likely to promote or depress a Th1 or Th2 response. […]

[4] = test system: IFN-gamma production in concanavalin A stimulated primary human CD4+ T-cells; assay: IFN-gamma production (Th1 profile) in concanavalin A stimulated primary human CD4+ T-cells; format: cell-based; details: T-cell, 10 μg/mL Concanavalin A, 48 hours, X marks this range, read-out: INF-GAMMA IC50 RANGE (μM) 0.2-2.0
Source text: as §1, §2, §3, §4, §5, §6, §7

[5] = read-out: IL-10 IC50 RANGE (μM) 2.0-20
[6] = PDE3, platelet cell extract, X marks this range, read-out: IC50 range (μM) 10-100
[7] = read-out: EC50 range (μM) 0.1-1
[8] = read-out: IL-10 IC50 RANGE (μM) 0.2-2.0
[9] = PDE3, platelet cell extract, X marks this range, read-out: IC50 range (μM) 1-10
[10] = read-out: IL-10 IC50 RANGE (μM) 0.02-0.2

T1 sequence (Q14432 whole entry): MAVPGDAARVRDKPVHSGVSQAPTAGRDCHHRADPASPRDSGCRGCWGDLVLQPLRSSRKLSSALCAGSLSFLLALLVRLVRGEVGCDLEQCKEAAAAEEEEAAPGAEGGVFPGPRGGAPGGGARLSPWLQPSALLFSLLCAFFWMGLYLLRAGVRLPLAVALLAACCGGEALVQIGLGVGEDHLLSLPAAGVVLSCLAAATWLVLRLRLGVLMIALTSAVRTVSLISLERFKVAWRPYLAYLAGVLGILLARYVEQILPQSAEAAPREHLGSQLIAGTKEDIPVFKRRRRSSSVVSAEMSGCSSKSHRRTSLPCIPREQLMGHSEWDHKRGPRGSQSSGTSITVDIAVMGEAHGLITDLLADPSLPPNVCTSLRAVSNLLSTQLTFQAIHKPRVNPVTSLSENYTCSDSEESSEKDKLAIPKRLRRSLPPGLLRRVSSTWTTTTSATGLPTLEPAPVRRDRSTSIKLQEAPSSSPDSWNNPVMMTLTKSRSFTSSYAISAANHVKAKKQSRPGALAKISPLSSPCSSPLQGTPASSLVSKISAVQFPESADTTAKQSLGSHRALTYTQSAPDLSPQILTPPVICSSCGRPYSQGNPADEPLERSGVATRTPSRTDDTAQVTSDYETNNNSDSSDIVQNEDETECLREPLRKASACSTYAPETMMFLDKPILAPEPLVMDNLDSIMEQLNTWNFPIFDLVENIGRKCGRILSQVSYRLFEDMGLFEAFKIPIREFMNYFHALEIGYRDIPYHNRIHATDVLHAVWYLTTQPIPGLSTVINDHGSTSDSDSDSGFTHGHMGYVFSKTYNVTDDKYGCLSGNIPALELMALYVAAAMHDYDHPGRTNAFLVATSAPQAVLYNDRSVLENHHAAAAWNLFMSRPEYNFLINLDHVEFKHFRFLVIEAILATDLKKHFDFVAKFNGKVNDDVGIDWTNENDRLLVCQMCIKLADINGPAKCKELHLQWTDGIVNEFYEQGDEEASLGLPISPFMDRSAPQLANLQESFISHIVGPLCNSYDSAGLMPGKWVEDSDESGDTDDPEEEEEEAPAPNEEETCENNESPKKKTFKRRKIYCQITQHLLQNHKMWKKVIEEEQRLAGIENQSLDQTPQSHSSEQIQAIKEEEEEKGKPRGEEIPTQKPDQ

## COc1cc(C[C@@H]2CC(c3ccc(OC)c(OC)c3)COC2=O)ccc1O (mixture of isomers) [Compound 12]
[1]; human platelets, read-out: IC50 PDE 3
  IC50: 45 µM
[1]; read-out: % inhibition by 100 μM test compound 50-75, X marks this range
  inhibition at 100 µM: 50 to 75%
[2]; read-out: EC50 range (μM) 1-25
  EC50: 1 to 25 µM

## COc1cc(C[C@@H]2C[C@@H](c3ccc(OC)c(OC)c3)COC2=O)ccc1O [Compound 30]
[3]; [5]
  IC50: 2 to 20 µM
[1]; [6]
  IC50: 10 to 100 µM
[4]
  IC50: 0.2 to 2 µM
[2]; read-out: EC50 range (μM) 1-25
  EC50: 1 to 25 µM

## COc1ccc([C@@H]2CCC(=O)OC2)cc1OC1CCCC1 [Compound 41]
[1]; PDE3, platelet cell extract, X marks this range
  IC50: > 100 µM
[1]; read-out: % inhibition by 100 μM test compound 25-50, X marks this range
  inhibition at 100 µM: 25 to 50%
[2]; [7]
  EC50: 0.1 to 1 µM

## COc1cc(CC2C[C@@H](c3ccc(OC)c(OC4CCCC4)c3)COC2=O)ccc1O (stereo partly drawn) [Compound 43]
[3]; [5]
  IC50: 2 to 20 µM
[1]; [6]
  IC50: 10 to 100 µM
[1]; read-out: % inhibition by 100 μM test compound 75-100, X marks this range
  inhibition at 100 µM: 75 to 100%
[4]
  IC50: 0.2 to 2 µM
[2]; [7]
  EC50: 0.1 to 1 µM

## COc1ccc([C@H]2CNC(=O)C(Cc3ccc(OCc4ccccc4)c(OC)c3)C2)cc1OC (stereo partly drawn) [Compound 54]
[3]; [8]
  IC50: 0.2 to 2 µM
[1]; [9]
  IC50: 1 to 10 µM
[4]
  IC50: 0.2 to 2 µM
[2]; read-out: EC50 range (μM) 1-25
  EC50: 1 to 25 µM

## COc1cc(CC2C[C@@H](c3ccc(OC)c(OC)c3)CNC2=O)ccc1O (stereo partly drawn) [Compound 55]
[3]; [8]
  IC50: 0.2 to 2 µM
[1]; [9]
  IC50: 1 to 10 µM
[4]
  IC50: 0.2 to 2 µM
[2]; read-out: EC50 range (μM) 1-25
  EC50: 1 to 25 µM

## COc1cc(CC2C[C@@H](c3ccc(OC)c(OC4CCCC4)c3)CNC2=O)ccc1O (stereo partly drawn) [Compound 62]
[3]; [10]
  IC50: 0.02 to 0.2 µM
[1]; [9]
  IC50: 1 to 10 µM
[4]
  IC50: 0.2 to 2 µM
[2]; read-out: EC50 range (μM) 1-25
  EC50: 1 to 25 µM

## COc1ccc(C2CNC(=O)C2)cc1OC1CCCC1 (stereo not drawn) [Rolipram, reference compound]
[3]; [10]
  IC50: 0.02 to 0.2 µM
[1]; platelet cell extract, cAMP as substrate
  effect in PDE3 assay: without effect
[4]
  IC50: 0.2 to 2 µM
